# Laboratory results published in patent US20040242524A1, “Chemotherapeutic composition and method” (priority 1998, published 2004).
# Values joined by “and” are separate entries in the source; they are usually repeats but may differ in a detail not shown here. Equal values may be shown once. Read-outs that look alike come from different tables or passages of the source.
# Tests used:
# B-16 melanoma cells [1] = assay: Inhibition of B-16 melanoma cell proliferation by chemotherapeutic agents ± MCC (MTT reduction); format: cell-based, murine; conditions: for IC50: B16; for inhibited proliferation: 72 h, MTT
# Protocol: B-16 melanoma cells, at 3×10^5 cells/ml, were incubated for 72 h with the chemotherapeutic agents mitomycin-C, 5-fluorouracil and cisplatin in the absence and in the presence of MCC. Cell proliferation was determined using dimethylthiazol-diphenyltetrazolium bromide (MTT) reduction (Mosman et al. Journal of Immunological Methods 65:55-63, 1983). After 72 h, 20 μl of MTT in culture medium was added to each well and incubated for 3 h. Medium was then aspirated from each well, 100 μl of acidified isopropyl alcohol was added to each sample and reduced MTT was solubilized by mixing. The absorbency of the reaction product was determined using an ELISA microplate reader at a wavelength of 570 nm.
# B-16 melanoma cells were incubated with 0.01 to 100 μg/ml of mitomycin-C, with 1 to 100 μg/ml of MCC and with 0.01 to 10 μg/ml of mitomycin-C+1 μg/ml MCC. Mitomycin-C is an anti-tumor antibiotic produced by Streptomyces caespitosus, which cross-links DNA, depolymerizes DNA and forms free radicals.
# B-16 melanoma cells were incubated with 0.01 to 100 μg/ml of 5-fluorouracil, with 1 to 100 μg/ml of MCC and with 0.01 to 10 μg/ml of 5-fluorouracil+1 μg/ml MCC. 5-fluorouracil is an antimetabolite, which interferes with DNA and RNA synthesis.
# B-16 melanoma cells were incubated with 0.01 to 100 μg/ml of cisplatin, with 1 to 100 μg/ml of MCC and with 0.01 to 10 μg/ml of cisplatin+1 μg/ml MCC. Cisplatin is an alkylating agent that cross-links DNA and inhibits DNA precursors.
# B-16 melanoma cells [2] = assay: Cell cycle analysis, synchronously dividing (MTX) B-16 cells; format: cell-based, murine; conditions: MTX alone
# Protocol: (§1) Cell cycle stage was determined using a CYCLETEST™ PLUS DNA commercial kit (Becton Dickinson, San Jose, Calif., USA). Briefly, nuclei from treated cells were obtained by dissolving the cell membrane in a nonionic detergent, eliminating the cell cytoskeleton and nuclear proteins with trypsin, digesting the cellular RNA with RNase, and stabilizing the nuclear chromatin with spermine. Propidium iodide was added to the cell nuclei and their fluorescence was analyzed in a flow cytometer equipped with electronic doublet discrimination capability (FACSCalibur, Becton Dickinson). Accumulation of cells in GO/G1, S (SE, SM, SL) or G2/M phases of the cell cycle was analyzed using MODFIT LT software (Verity Software House Inc., Topsham, Mass., USA). Results are expressed as percentage of cells in each phase of the cell cycle.
# (§2) To synchronize cell populations, exponentially growing cells were incubated in tissue culture medium containing 0.04 to 0.16 μM methotrexate (MTX) for 20 hours. The MTX medium was removed, cells were washed extensively with phosphate buffered saline (PBS), fresh medium was added, incubation was continued for 8 hours and cell cycle analysis was performed as in Example 4.
# (§3) Exponentially growing Jurkat, HL-60, HL-60MX1 and EL-4 cells, at 1×10^6 cells/ml, and B-16 cells, at 3×10^5 cells/ml, were prepared for analysis as in Example 5 with 0, 10 and 100 μg/ml of MCC in the MTX medium.
# [3] = test system: mitoxantrone resistant promyelocytic HL-60MX1 leukemia cells; assay: Cell cycle analysis, synchronously dividing (MTX) HL-60MX1 cells; format: cell-based, human; conditions: MTX alone (0.04 μM)
# Protocol: as §1, §2, §3
# [4] = test system: Jurkat T cell leukemia cells; assay: Cell cycle analysis, synchronously dividing (MTX) Jurkat cells; format: cell-based, human; conditions: MTX alone (0.08 μM)
# Protocol: as §1, §2, §3
# Exponentially growing Jurkat leukemia cells, at 1×10^6 cells/ml, were prepared for analysis as in Example 5 with 0 and 10 μg/ml of MCC and 10 μg/ml DNase I-treated MCC in the MTX medium.
# [5] = test system: promyelocytic HL60 leukemia cells (HL-60); assay: Cell cycle analysis, synchronously dividing (MTX) HL-60 cells; format: cell-based, human; conditions: MTX alone (0.04 μM)
# Protocol: as §1, §2, §3
# EL-4 lymphoma cells = assay: Cell cycle analysis, synchronously dividing (MTX) EL-4 cells; format: cell-based, murine; conditions: MTX alone (0.16 μM)
# Protocol: as §1, §2, §3
# B-16 melanoma tumors = assay: Effects of M-DNA and MCC in combination with mitomycin-C on B-16 melanoma tumors in mice; format: in vivo; conditions: nude BALB/c mice, subcutaneous B-16, after 4 weeks of treatment; Group 1 saline, Group 4 mitomycin-C
# Protocol: B-16 melanoma cells are implanted subcutaneously into 30 male nude BALB/c mice and allowed to grow for 10 days. The mice are divided into 6 groups and tumor mass is measured in each mouse. On day 0, Group 1 mice receive saline, Group 2 mice receive M-DNA, Group 3 mice receive MCC, Group 4 mice receive mitomycin-C, Group 5 mice receive M-DNA and mitomycin-C and Group 6 mice receive MCC and mitomycin-C. After 4 weeks of treatment, the mice are sacrificed and the tumor mass and number of metastases are determined. Group 1 mice have the most tumor mass.
# [6] = 0.1 μg/ml, in the presence of 1 μg/ml MCC
# [7] = 1 μg/ml, in the presence of 1 μg/ml MCC
structure (smiles),measurement,setting,value
O=c1[nH]cc(F)c(=O)[nH]1 [5-fluorouracil],inhibition at 0.01 µg/mL,"B-16 melanoma cells [1]; Mus musculus, B16, 72 h, read-out: inhibited proliferation, 0.01 μg/ml, agent alone, 72 h, MTT",~8%
same,inhibition at 0.01 µg/mL,"B-16 melanoma cells [1]; Mus musculus, B16, 72 h, read-out: inhibited proliferation, 0.01 μg/ml, in the presence of 1 μg/ml MCC, 72 h, MTT",~75%
same,inhibition at 0.1 µg/mL,"B-16 melanoma cells [1]; Mus musculus, B16, 72 h, read-out: inhibited proliferation, 0.1 μg/ml, agent alone, 72 h, MTT",~50%
same,inhibition at 0.1 µg/mL,"B-16 melanoma cells [1]; Mus musculus, B16, 72 h, read-out: inhibited proliferation, 0.1 μg/ml, in the presence of 1 μg/ml MCC, 72 h, MTT",~85%
same,inhibition at 1 µg/mL,"B-16 melanoma cells [1]; Mus musculus, B16, 72 h, read-out: inhibited proliferation, 1 μg/ml, agent alone, 72 h, MTT",~90%
same,inhibition at 1 µg/mL,"B-16 melanoma cells [1]; Mus musculus, B16, 72 h, read-out: inhibited proliferation, 1 μg/ml, in the presence of 1 μg/ml MCC, 72 h, MTT",~90%
same,inhibition at 10 µg/mL,"B-16 melanoma cells [1]; Mus musculus, B16, 72 h, read-out: inhibited proliferation, 10 μg/ml, agent alone, 72 h, MTT",100%
same,inhibition at 10 µg/mL,"B-16 melanoma cells [1]; Mus musculus, B16, 72 h, read-out: inhibited proliferation, 10 μg/ml, in the presence of 1 μg/ml MCC, 72 h, MTT",100%
same,inhibition at 100 µg/mL,"B-16 melanoma cells [1]; Mus musculus, B16, 72 h, read-out: inhibited proliferation, 100 μg/ml, agent alone, 72 h, MTT",100%
same,IC50,"B-16 melanoma cells [1]; Mus musculus, read-out: IC50 (concentration for 50% inhibition of B-16 melanoma cell proliferation), Drug + MCC at 1 μg/ml",0.005 µg/mL
same,IC50,"B-16 melanoma cells [1]; Mus musculus, read-out: IC50 (concentration for 50% inhibition of B-16 melanoma cell proliferation), Drug Alone",0.12 µg/mL
"CN(Cc1cnc2nc(N)nc(N)c2n1)c1ccc(C(=O)N[C@@H](CCC(=O)O)C(=O)O)cc1 [MTX, methotrexate]",PERCENTAGE OF CELLS IN EACH PHASE: G0G1 + SE,B-16 melanoma cells [2],48.3%
same,PERCENTAGE OF CELLS IN EACH PHASE: SL + G2M,B-16 melanoma cells [2],46.3%
same,PERCENTAGE OF CELLS IN EACH PHASE: SM,B-16 melanoma cells [2],5.4%
same,PERCENTAGE OF CELLS IN EACH PHASE: G0G1 + SE,[3],46.1%
same,PERCENTAGE OF CELLS IN EACH PHASE: SL + G2M,[3],18.4%
same,PERCENTAGE OF CELLS IN EACH PHASE: SM,[3],35.5%
same,PERCENTAGE OF CELLS IN EACH PHASE: G0G1 + SE,[4],44.6% and 43.0%
same,PERCENTAGE OF CELLS IN EACH PHASE: SL + G2M,[4],30.1% and 31.4%
same,PERCENTAGE OF CELLS IN EACH PHASE: SM,[4],25.3% and 25.6%
same,PERCENTAGE OF CELLS IN EACH PHASE: G0G1 + SE,[5],50.3%
same,PERCENTAGE OF CELLS IN EACH PHASE: SL + G2M,[5],25.5%
same,PERCENTAGE OF CELLS IN EACH PHASE: SM,[5],24.2%
same,PERCENTAGE OF CELLS IN EACH PHASE: G0G1 + SE,EL-4 lymphoma cells,18.3%
same,PERCENTAGE OF CELLS IN EACH PHASE: SL + G2M,EL-4 lymphoma cells,63.3%
same,PERCENTAGE OF CELLS IN EACH PHASE: SM,EL-4 lymphoma cells,18.4%
N.N.[Cl][Pt][Cl] [cisplatin],inhibited proliferation,"B-16 melanoma cells [1]; 0.01 μg/ml, agent alone",0%
same,inhibited proliferation,"B-16 melanoma cells [1]; 0.01 μg/ml, in the presence of 1 μg/ml MCC",about 40%
same,inhibited proliferation,"B-16 melanoma cells [1]; 0.1 μg/ml, agent alone",about 8%
same,inhibited proliferation,B-16 melanoma cells [1]; [6],about 50%
same,inhibited proliferation,"B-16 melanoma cells [1]; 1 μg/ml, agent alone",about 62%
same,inhibited proliferation,B-16 melanoma cells [1]; [7],about 70%
same,inhibited proliferation,"B-16 melanoma cells [1]; 10 μg/ml, agent alone",about 90%
same,inhibited proliferation,"B-16 melanoma cells [1]; 10 μg/ml, in the presence of 1 μg/ml MCC",about 90%
same,inhibited proliferation,"B-16 melanoma cells [1]; 100 μg/ml, agent alone",100%
same,"IC50 (concentration for 50% inhibition of B-16 melanoma cell proliferation), Drug + MCC at 1 μg/ml",B-16 melanoma cells [1],0.16 µg/mL
same,"IC50 (concentration for 50% inhibition of B-16 melanoma cell proliferation), Drug Alone",B-16 melanoma cells [1],0.6 µg/mL
CO[C@@]12[C@H](COC(N)=O)C3=C(C(=O)C(C)=C(N)C3=O)N1C[C@@H]1N[C@@H]12 [mitomycin-C],tumor mass,B-16 melanoma tumors,less tumor mass than Group 1 mice
same,inhibited proliferation,"B-16 melanoma cells [1]; 0.1 μg/ml, agent alone",about 5%
same,inhibited proliferation,B-16 melanoma cells [1]; [6],about 40%
same,inhibited proliferation,"B-16 melanoma cells [1]; 1 μg/ml, agent alone",about 10%
same,inhibited proliferation,B-16 melanoma cells [1]; [7],about 65%
same,inhibited proliferation,"B-16 melanoma cells [1]; 10 μg/ml, agent alone",100%
same,inhibited proliferation,"B-16 melanoma cells [1]; 100 μg/ml, agent alone",100%
same,inhibited proliferation,"B-16 melanoma cells [1]; 100 μg/ml, in the presence of 1 μg/ml MCC",100%
same,"IC50 (concentration for 50% inhibition of B-16 melanoma cell proliferation), Drug + MCC at 1 μg/ml",B-16 melanoma cells [1],0.12 µg/mL
same,"IC50 (concentration for 50% inhibition of B-16 melanoma cell proliferation), Drug Alone",B-16 melanoma cells [1],2.2 µg/mL
